According to US20250319206A1, “CRISPR/CAS GENE EDITING OF NEH4 AND/OR NEH5 DOMAINS IN NRF2” (Christina Care Gene Editing Institute, Inc., priority 2024, published 2025):

How the values were obtained:
[1] = tested on: NRF2; experiment: NRF2 protein analysis by western blot in FaDu cells; format: cell-based, Human; conditions: 72-hour timepoint, relative to GapDH, normalized to wild-type
Procedure: Total protein was isolated from cells in RIPA buffer (Pierce), incubated on ice for 30 minutes with vortexing every 10 minutes. Samples were centrifuged at 14,000×G at 4° C. for 15 minutes and the supernatant was saved. Protein extracts were quantified using a BCA assay (Pierce) and 20 μg of protein was loaded onto a Biorad 4-20% polyacrylamide pre-cast gel (Biorad). Protein was transferred onto a […] nitrocellulose blot using the Turboblot dry transfer system (Biorad). The membrane was blocked in 5% milk in TBS-T for 2 hours at room temperature and stained with anti-NRF2 1:1000 (Abcam, ab62352) and anti-GAPDH 1:5,000 (Cell Signaling Technology, 97166). Blots were washed 3× at room temperature in TBS-T and stained with secondary antibodies conjugated to HRP 1:10,000 (Abcam, ab205718 or Thermofisher, PI31430). Blots were imaged using the Pierce Femto western blotting substrate (Pierce). Bands were quantified using the FIJI gel analysis tool package.

[2] = tested on: NRF2 gene; experiment: Exon skipping analysis of NRF2 cDNA in FaDu and KYSE-410 cells; format: cell-based, Human; conditions: 72 hours post-transfection, cDNA PCR 5′UTR to exon 5
Procedure: Total RNA was isolated from edited cells using TRIzol reagent and PureLink RNA Mini Kit (Thermo Fisher Scientific, Waltham, MA). Reverse transcription was conducted using the Applied Biosystems High-Capacity RNA-to-cDNA kit (Thermo Fisher Scientific, Waltham, MA). The cDNA was used as the template for PCR amplification with either Phusion Flash or Phusion High-Fidelity PCR master mix (Thermo Fisher Scientific, Waltham, MA) with primers spanning the 5′UTR region through Exon 5 (798 bp) of the NRF2 gene. PCR reactions were purified using Qiagen Qiaquick PCR cleanup columns (Quiagen, Hilden, Germany) according to manufacturer's protocol, measured on a Nanodrop and equally loaded on a 1% agarose gel.
The difference between targeting exon 2 and exon 4 was intriguing, so we wanted to see if a molecular rearrangement, exon skipping, which we had identified previously within the NRF2 gene was at least in part responsible for this difference^33. Since we know NRF2 exon 2 and exon 4 are disrupted by design, and intra-genic changes are the objective of the experiment, we asked if exon skipping could account for the differential response in targeting exon 2 versus exon 4. FIG. 14A represents the potential exon skipping outcomes. For both the FADU and the KYSE-410 cells, at 72 hours post-transfection RNA was converted to cDNA followed by PCR amplification of the NRF2 cDNA (798 bp) spanning the 5′UTR to exon 5. […] The 798 bp is the full transcript while the lower band for sg3 is 531 bp and sg76 is 606 bp, the expected sizes of the removal of exon 2 (267 bp) and exon 4 (192 bp).

[3] = tested on: FaDu cells; conditions: for viability after a single dose of Cisplatin: exon 4 edited, cisplatin 72 hours; for sensitivity to cisplatin: exon 4 targeting
[4] = tested on: NRF2 downstream target genes (NQO1, HMOX1, GCLC); experiment: qPCR gene expression analysis of NRF2 and downstream targets in KYSE-410 cells; format: cell-based, Human; conditions: for NQO1 expression (qPCR): vs wildtype unedited cells, without cisplatin exposure
Procedure: Total RNA was isolated from edited cells using TRIzol reagent and PureLink RNA Mini Kit (Thermo Fisher Scientific, Waltham, MA). Reverse transcription was conducted using the Applied Biosystems High-Capacity RNA-to-cDNA kit (Thermo Fisher Scientific, Waltham, MA). The cDNA was used as the template in the qPCR amplification of GAPDH (Fwd 5′ […]3′ (SEQ ID NO:76), Rev 5′[…]3′ (SEQ ID NO:77)), NRF2 (Fwd 5′[…]3′ (SEQ ID NO:78), Rev 5′[…]3′ (SEQ ID NO:79)), NQO1 (Fwd 5′[…]3′ (SEQ ID NO:80), Rev 5′[…]3′ (SEQ ID NO:81)), HMOX1 (Fwd 5′ […]3′ (SEQ ID NO:82), Rev 5′[…]3′ (SEQ ID NO:83)) and GCLC (Fwd 5′[…]3′ (SEQ ID NO:84), Rev 5′ […]3′ (SEQ ID NO:85)) transcripts using the SsoAdvanced universal SYBR Green Supermix (BioRad, Hercules, CA). The experiment was conducted at least twice with all samples run in duplicate at minimum. Relative expression levels of mRNA were calculated using the Livak method and normalized to the control. The data was plotted with the coefficient of variance.
For all gene editing studies from bench to bedside, it is important to employ a functional assay, accompanied by an internal functional control, to assess the efficiency of CRISPR/Cas activity. In this case, NRF2 is a transcription factor that controls the expression of over 200 genes. Thus, NRF2 disruption can be measured functionally through qPCR analysis of NQO1 expression, a keystone gene controlled by NRF2. NQO1 has been used as a standard measure of NRF2 activity in cancer cells^40. We also use downstream targets HMOX1 and GCLC, two major antioxidant enzymes, to assess NRF2 function.

[5] = tested on: KYSE-410 cells; experiment: Chemosensitivity testing, CellTiter-Glo 2.0 cell viability, KYSE-410 cells; format: cell-based, Human; conditions: for chemosensitivity to Cisplatin restored: cisplatin 72 hr; for sensitivity to cisplatin: exon 4 targeting
Excerpt: The data was plotted with the coefficient of variance.
To evaluate this approach for broad based applications, we executed the same protocol on KYSE-410 cells which originate from the poorly differentiated invasive esophageal squamous cell carcinoma resected from the cervical esophagus of a person prior to treatment^41. First, we confirmed that the DNA sequence of exon 2 and exon 4 was identical and amenable to targeting with CRISPRs sg3, sg76, or sg83 respectively (data not shown). While this may seem like a trivial matter, it is not, particularly with mutator phenotypes in transformed cells. Plated cells were allowed to recover for 24 hours prior to transfection with the same CRISPR complexes as described in FIG. 12. […] These overall levels are generally considered to be a complete genetic disruption of a mammalian gene. The percentage of frameshift mutations created by the action of these guide RNAs mimics those levels seen previously in FADU cells. […] The expression levels of NRF2, NQO1, HMOX1, and GCLC were also assessed, FIG. 13C. […] This analysis further supports that disruption of NRF2 in exon 4 has a higher impact on overcoming chemosensitivity by disrupting its function of activating downstream genes.

Substance | NRF2 protein knock down [1] | exon skipping [2] | viability after a single dose of Cisplatin [3] | sensitivity to cisplatin [3] | NQO1 expression (qPCR) [4] | chemosensitivity to Cisplatin restored [5] | sensitivity to cisplatin [5] | NQO1 and GCLC expression ([4]; vs exon 2 (sg3) or exon 4 (sg76) targeted cells)
sg3: gRNA targeting the DLG motif in exon 2 of NRF2; 5′-TATTTGACTTCAGTCAGCGA-3′ or TGGAGGCAAGATATAGATCT (further chemistry not given here) [reference compound] | 30% | second lower band indicative of an exon skipping event | – | – | – | – | – | –
sg76: gRNA targeting exon 4 of NRF2; TCACTTGTTCCTGATATTCC CGG (guide TCACTTGTTCCTGATATTCCCGG; listed as DNA, chemistry not given here) | 90% | second lower band indicative of an exon skipping event | significant reduction in viability | enhanced sensitivity to cisplatin | significantly decreased | restored | enhanced sensitivity to cisplatin | –
sg83: gRNA targeting exon 4 of NRF2; GTAGCCCCTGTTGATTTAGA CGG (guide GTAGCCCCTGTTGATTTAGACGG; listed as DNA, chemistry not given here) | 90% | some level of exon skipping activity is detected but at much lower rate | significant reduction in viability | enhanced sensitivity to cisplatin | significantly decreased | restored | enhanced sensitivity to cisplatin | lower levels of NQO1 and GCLC expression
